This is an account of results in US8410089B2, “Fused heterocyclic ring compound” (Takeda Pharmaceutical Company Limited, priority 2009, dated 2013).

The experiment deals with T1, human GPR119 (Homo sapiens, UniProt Q8TDV5).
T1 construct: expressed in transfected cells
T1 sequence (Q8TDV5 1-335): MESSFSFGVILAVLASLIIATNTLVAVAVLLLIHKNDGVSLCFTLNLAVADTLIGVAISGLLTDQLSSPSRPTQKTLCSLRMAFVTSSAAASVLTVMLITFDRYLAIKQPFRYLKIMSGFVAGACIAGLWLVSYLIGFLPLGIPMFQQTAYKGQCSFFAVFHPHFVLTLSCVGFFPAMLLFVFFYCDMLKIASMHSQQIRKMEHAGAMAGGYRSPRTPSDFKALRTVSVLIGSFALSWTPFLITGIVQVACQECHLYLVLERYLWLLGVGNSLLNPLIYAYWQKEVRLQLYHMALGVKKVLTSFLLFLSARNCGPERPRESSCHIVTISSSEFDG
Kind of experiment: Human GPR119 agonist activity with increase of intracellular cAMP concentration as index (CRE-luciferase reporter assay in hGPR119/CRE-luc/CHO(dhfr-) cells). The experiment is classed as cell-based. To be noted: 1 μM test compound, 2 hr incubation; luciferase activity with 10 μM N-[4-(methylsulfonyl)phenyl]-5-nitro-6-{4-[4-(trifluoromethoxy)phenoxy]piperidin-1-yl}pyrimidin-4-amine = 100%, DMSO = 0%. How it is done: Evaluation of Human GPR119 Agonist Activity with Increase of Intracellular Camp Concentration as Index
(1) Construction of Expression Plasmid of Human GPR119 Gene
Using High Fidelity RNA PCR Kit (Takara Bio Inc.), human GPR119 gene was cloned by PCR using cDNA library synthesized from human brain mRNA (Clontech) as a template and synthetic DNA having the following sequence. Primer 1 and Primer 2 were is prepared by adding cleavage sites for Sal I and Nhe I based on the base sequence information of human GPR119 gene.
PCR was performed using Pyrobest DNA polymerase (Takara Bio Inc.). The obtained PCR product was cloned to pUC118 (Takara Bio Inc.), and the base sequence was […] and digested with restriction enzymes Sal I, Nhe I. The obtained DNA fragment was inserted into an animal cell expression vector pAKKO-111H (plasmid same as pAKKO-1.111H described in Biochem. Biophys. Acta, Hinuma, S. et al., 1219, 251-259 (1994)) similarly digested with Sal I, Nhe I, whereby an expression plasmid pAKKO-111H/hGPR119 was prepared.
(2) Construction of Reporter Plasmid
Zeocin resistance gene was cloned by PCR using plasmid pcDNA3.1/Zeo (Invitrogen) as a template, synthetic DNA having the following sequences wherein cleavage sites for restriction enzymes Sal I and BamH I are added to before and after a region containing SV40 Ori and a region containing SV40pA, which are located at the upstream and downstream of Zeocin resistance gene of this plasmid, as a primer set, and KOD polymerase (TOYOBO).
The obtained PCR product was inserted into pCR-BluntII (Invitrogen). A fragment containing a Zeocine resistance gene obtained by digesting the plasmid with restriction enzymes Sal I and BamH I was inserted into plasmid pGL3(R2.2)-Basic Vector (promega) similarly digested with Sal I and Bam HI to give Zeocin resistance plasmid pGL3(R2.2)/Zeocin-Basic Vector.
A reporter plasmid containing 4 cAMP responsive elements (CRE) connected in tandem was prepared using the following 5′-terminal phosphorylated synthetic DNA.
First, a DNA fragment containing a CRE sequence obtained by annealing CRE-Upper and CRE-Lower and elongating with KOD polymerase was inserted into pCR-BluntII to give pCR-BluntII-CRE. A fragment cleaved from pCR-BluntII-CRE with restriction enzymes Kpn I and Hind III was inserted into pGL3(R2.2)/Zeocin-Basic Vector similarly digested with Kpn I and Hind III to give reporter plasmid pGL3(R2.2)/Zeocin-CRE-luc.
(3) Introduction of Human GPR119 Gene and Reporter Gene into CHO(dhfr-) Cells and Acquirement of Expressing Cell
CHO(dhfr-) cells in MEMα (minimum essential medium alpha) (Nikken bio medical laboratory) medium containing 10% fetal bovine serum, 100 U/mL penicillin and 100 μg/mL streptomycin (Invitrogen) were detached by a treatment with trypsin-EDTA (ethylenediaminetetraacetic acid) (Invitrogen), the cells were washed with PBS (Phosphate-buffered saline), centrifuged (1000 rpm, 5 min) and suspended in PBS at a cell density of 1×10^7 cells/mL. Then, DNA was introduced into the cell by a gene pulser (Bio-Rad) under the following conditions. That is, 1×10^7 cells, plasmid pGL3(R2.2)/Zeocin-CRE-luc (15 μg), which was obtained in (2) and linearized with BssH II, and pAKKO-111H (5 μg) were added in a 0.4 cm gap cuvette, and the mixture was electroporated at voltage […], capacitance 950 μF. The cells were placed in the above-mentioned medium, cultured for 24 hr, and the cells were detached and centrifuged. The cells were diluted to 250 cells/well, plated in a 96 well plate (Corning) and cultivated in a CO2 incubator at 37° C. to give a transformant. Then, forskolin was added to the obtained transformant and a strain (CRE-luc/CHO(dhfr-) cell) that induces luciferase expression was selected. […]
For `CC(C)OC(=O)N1CCC(Oc2cc(N3CCc4cc(NC(=O)[C@H]5CCCO5)ccc43)ncn2)CC1` [Example 51, isopropyl 4-{[6-(5-{[(2R)-tetrahydrofuran-2-ylcarbonyl]amino}-2,3-dihydro-1H-indol-1-yl)pyrimidin-4-yl]oxy}piperidine-1-carboxylate], the “GPR119 agonist activity (%) at 1 μM concentration” value (“GPR119 agonist activity (%)” for short) is given as 83%.
The same measure for `COCC(=O)Nc1ccc2c(c1)CCN2c1cc(OC2CCN(C(=O)SC(C)C)CC2)ncn1` [Example 60, S-(1-methylethyl) 4-[(6-{5-[(methoxyacetyl)amino]-2,3-dihydro-1H-indol-1-yl}pyrimidin-4-yl)oxy]piperidine-1-carbothioate]: 81%; for `CC(C)c1noc(N2CCC(Oc3cc(N4CCc5cc(N6CCCC6=O)ccc54)ncn3)CC2)n1` [Example 46, 1-{1-[6-({1-[3-(1-methylethyl)-1,2,4-oxadiazol-5-yl]piperidin-4-yl}oxy)pyrimidin-4-yl]-2,3-dihydro-1H-indol-5-yl}pyrrolidin-2-one]: 80%.
For `CC(C)(C)OC(=O)N1CCC(n2ccc3c(N4CCc5cc(S(C)(=O)=O)ccc54)ccnc32)CC1` [Example 3, tert-butyl 4-{4-[5-(methylsulfonyl)-2,3-dihydro-1H-indol-1-yl]-1H-pyrrolo[2,3-b]pyridin-1-yl}piperidine-1-carboxylate] the value was 87%; for `CCc1cnc(N2CCC(Oc3cc(N4CCc5cc(C(=O)N6CCOCC6)ccc54)ncn3)CC2)nc1` [Example 27, [1-(6-{[1-(5-ethylpyrimidin-2-yl)piperidin-4-yl]oxy}pyrimidin-4-yl)-2,3-dihydro-1H-indol-5-yl](morpholin-4-yl)methanone], 77%.
For `CCc1noc(N2CCC(Oc3cc(N4CCc5cc(S(C)(=O)=O)ccc54)ncn3)CC2)n1` [Example 41, 1-(6-{[1-(3-ethyl-1,2,4-oxadiazol-5-yl)piperidin-4-yl]oxy}pyrimidin-4-yl)-5-(methylsulfonyl)-2,3-dihydro-1H-indole], the “GPR119 agonist activity (%)” value came out at 85%.
Consider `CC(C)SC(=O)N1CCC(Oc2cc(N3CCc4cc(NC(=O)CO)ccc43)ncn2)CC1` [Example 54, S-(1-methylethyl) 4-[(6-{5-[(hydroxyacetyl)amino]-2,3-dihydro-1H-indol-1-yl}pyrimidin-4-yl)oxy]piperidine-1-carbothioate], for which the “GPR119 agonist activity (%)” value is recorded as 82%.
On to `CC(C)SC(=O)N1CCC(Oc2cc(N3CCc4cc(N5CCCC5=O)ccc43)ncn2)CC1` [Example 45, S-(1-methylethyl) 4-({6-[5-(2-oxopyrrolidin-1-yl)-2,3-dihydro-1H-indol-1-yl]pyrimidin-4-yl}oxy)piperidine-1-carbothioate], for which the “GPR119 agonist activity (%)” value was found to be 75%.
For `COc1cnc(N2CCC(N(c3cc(N4CCc5cc(S(C)(=O)=O)ccc54)ncn3)C(F)(F)F)CC2)nc1` [Example 72, N-[1-(5-methoxypyrimidin-2-yl)piperidin-4-yl]-6-[5-(methylsulfonyl)-2,3-dihydro-1H-indol-1-yl]-N-(trifluoromethyl)pyrimidin-4-amine] the value was 77%.
For `CCc1cnc(N2CCC(Oc3cc(N4CCc5cc(C(=O)NC(C)CO)ccc54)ncn3)CC2)nc1` (stereo not shown) [Example 23, 1-(6-{[1-(5-ethylpyrimidin-2-yl)piperidin-4-yl]oxy}pyrimidin-4-yl)-N-(1-hydroxypropan-2-yl)-2,3-dihydro-1H-indole-5-carboxamide], the “GPR119 agonist activity (%)” value was found to be 79%.
For `CC(C)OC(=O)N1CCC(n2ccc3c(N4CCc5cc(N6CCCC6=O)ccc54)ncnc32)CC1` [Example 10, 1-methylethyl 4-{4-[5-(2-oxopyrrolidin-1-yl)-2,3-dihydro-1H-indol-1-yl]-7H-pyrrolo[2,3-d]pyrimidin-7-yl}piperidine-1-carboxylate], the “GPR119 agonist activity (%)” value came to 93%.
For `CCc1cnc(N2CCC(Oc3cc(N4CCc5cc(C(=O)N(C)CCO)ccc54)ncn3)CC2)nc1` [Example 21, 1-(6-{[1-(5-ethylpyrimidin-2-yl)piperidin-4-yl]oxy}pyrimidin-4-yl)-N-(2-hydroxyethyl)-N-methyl-2,3-dihydro-1H-indole-5-carboxamide] the value was 80%.
For `CC(C)c1noc(N2CCC(Oc3cc(N4CCc5cc(S(C)(=O)=O)cc(F)c54)ncn3)CC2)n1` [Example 64, 7-fluoro-1-[6-({1-[3-(1-methylethyl)-1,2,4-oxadiazol-5-yl]piperidin-4-yl}oxy)pyrimidin-4-yl]-5-(methylsulfonyl)-2,3-dihydro-1H-indole] the value was 77%; for `COCCN(C)C(=O)c1ccc2c(c1)CCN2c1cc(OC2CCN(c3nc(C(C)C)no3)CC2)ncn1` [Example 31, N-(2-methoxyethyl)-N-methyl-1-[6-({1-[3-(1-methylethyl)-1,2,4-oxadiazol-5-yl]piperidin-4-yl}oxy)pyrimidin-4-yl]-2,3-dihydro-1H-indole-5-carboxamide], 80%.
The same measure for `CC(C)(C)OC(=O)N1CCCC(n2ccc3c(N4CCc5cc(S(C)(=O)=O)ccc54)ncnc32)CC1` (stereo not shown) [Example 16, tert-butyl 4-{4-[5-(methylsulfonyl)-2,3-dihydro-1H-indol-1-yl]-7H-pyrrolo[2,3-d]pyrimidin-7-yl}azepane-1-carboxylate]: 77%.
As to `CC(C)(C)OC(=O)N1CCC(n2ccc3c(N4CCc5cc(S(C)(=O)=O)ccc54)ncnc32)CC1` [Example 1, tert-butyl 4-{4-[5-(methylsulfonyl)-2,3-dihydro-1H-indol-1-yl]-7H-pyrrolo[2,3-d]pyrimidin-7-yl}piperidine-1-carboxylate], the “GPR119 agonist activity (%)” value is 62%.
For `CC(C)(C)OC(=O)N1CC(Cn2ccc3c(N4CCc5cc(S(C)(=O)=O)ccc54)ncnc32)C1` [Example 14, tert-butyl 3-({4-[5-(methylsulfonyl)-2,3-dihydro-1H-indol-1-yl]-7H-pyrrolo[2,3-d]pyrimidin-7-yl}methyl)azetidine-1-carboxylate] the value was 82%; for `CC(C)OC(=O)N1CCC(N(c2cc(N3CCc4cc(S(C)(=O)=O)ccc43)ncn2)C(F)(F)F)CC1` [Example 70, 1-methylethyl 4-[{6-[5-(methylsulfonyl)-2,3-dihydro-1H-indol-1-yl]pyrimidin-4-yl}(trifluoromethyl)amino]piperidine-1-carboxylate], 83%.
For the molecule `CC(C)OC(=O)N1CCC(Oc2cc(N3CCc4cc(S(C)(=O)=O)ccc43)ncn2)CC1` [Example 18, 1-methylethyl 4-({6-[5-(methylsulfonyl)-2,3-dihydro-1H-indol-1-yl]pyrimidin-4-yl}oxy)piperidine-1-carboxylate], the “GPR119 agonist activity (%)” value was 74%.
